This assay has as its target T1, RORc ligand binding domain (Homo sapiens, UniProt P51449).
T1 construct: host or cells: E. coli
T1 sequence (P51449 269-508 limits assumed): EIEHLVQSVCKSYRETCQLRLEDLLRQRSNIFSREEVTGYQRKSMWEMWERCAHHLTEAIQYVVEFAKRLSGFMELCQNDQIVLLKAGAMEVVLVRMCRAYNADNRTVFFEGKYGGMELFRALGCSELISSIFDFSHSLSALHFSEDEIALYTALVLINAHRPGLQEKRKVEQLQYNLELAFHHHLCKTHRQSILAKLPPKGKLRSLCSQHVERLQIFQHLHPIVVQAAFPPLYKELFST
Briefly: In Vitro RORc Ligand Binding Assay (25-[3H]hydroxycholesterol radioligand filtration). Conditions: read-out: RORc IC50.

Where [1] appears, read: In Vitro RORc Ligand Binding Assay, Table 4.

pIC50: −log10 of the molar value. Read-outs that look alike come from different tables or passages of the source.

One may read the pIC50 as the negative decadic logarithm of the IC50, by convention in mol/L. On to `C[C@H]1CCC(c2ccccc2)S(=O)(=O)N1Cc1ccc(OCCN2CCCC2=O)cc1` (stereo partly drawn) [Example 439, 1-{2-[4-((3S)-Methyl-1,1-dioxo-6-phenyl-[1,2]thiazinan-2-ylmethyl)-phenoxy]-ethyl}-pyrrolidin-2-one], for which the pIC50 was 6.49.
Turning to `C[C@H]1CCC(c2ccccc2)S(=O)(=O)N1Cc1ccc(C(=O)NCC2CCOC2)cc1` (stereo partly drawn) [Example 271, 4-((3S)-Methyl-1,1-dioxo-6-phenyl-[1,2]thiazinan-2-ylmethyl)-N-(tetrahydro-furan-3-ylmethyl)-benzamide], the negative-log IC50 (pIC50) under setting [1] was 5.77.
For the compound `C[C@H]1CCC(c2ccccc2)S(=O)(=O)N1Cc1ccc(OC[C@H]2CCC(=O)N2)cc1` (single isomer, unassigned) [Example 450], the pIC50 was 5.98.
As to `C[C@H]1CCC(c2ccccc2)S(=O)(=O)N1Cc1ccc(C(=O)NC2CCC(O)C2)cc1` (single isomer, unassigned) [Example 408], the pIC50 was 5.45.
In the case of `C[C@H]1CCC(c2ccccc2)S(=O)(=O)N1Cc1ccc(N2CCn3cncc3C2)cc1F` (single isomer, unassigned) [Example 154], the pIC50 under setting [1] was 6.84.
As for `CC(=O)N1CCN(c2ccc(CN3CC(C)CCC(c4ccccc4)S3(=O)=O)c(F)c2)CC1` (single isomer, unassigned) [Example 334, 1-{4-[3-Fluoro-4-(4-methyl-1,1-dioxo-7-phenyl-[1,2]thiazepan-2-ylmethyl)-phenyl]-piperazin-1-yl}-ethanone], the pIC50 under setting [1] is 8.30.
Same read-out and setting: then `CC(=O)N1CCN(c2ccc(CN3[C@@H](C)CCC(c4ccccc4)S3(=O)=O)c(F)c2)C[C@H]1C(N)=O` (stereo partly drawn) [Example 381, (S)-1-Acetyl-4-[3-fluoro-4-((3S)-methyl-1,1-dioxo-6-phenyl-[1,2]thiazinan-2-ylmethyl)-phenyl]-piperazine-2-carboxylic acid amide], with 6.28; and `CC(=O)N1CCN(c2ccc(CN3C(C)CCCC(c4ccccc4)S3(=O)=O)c(F)c2)CC1` (single isomer, unassigned) [Example 327, 1-{4-[3-Fluoro-4-(3-methyl-1,1-dioxo-7-phenyl-[1,2]thiazepan-2-ylmethyl)-phenyl]-piperazin-1-yl}-ethanone], with 8.52.
Take `CC(=O)N1CCC(C(=O)Nc2ccc(CN3[C@@H](C)CCC(c4ccccc4)S3(=O)=O)c(F)c2)CC1` (stereo partly drawn) [Example 457, 1-Acetyl-piperidine-4-carboxylic acid [3-fluoro-4-((3S)-methyl-1,1-dioxo-6-phenyl-[1,2]thiazinan-2-ylmethyl)-phenyl]-amide]: the pIC50 is 6.36.
Turning to `CC(=O)N1CCN(c2ccc(CN3[C@@H](C)CCC(c4ccccc4)S3(=O)=O)c(F)c2)C[C@@H]1CO` (stereo partly drawn) [Example 262, 1-{4-[3-Fluoro-4-((3S)-methyl-1,1-dioxo-6-phenyl-[1,2]thiazinan-2-ylmethyl)-phenyl]-2-hydroxymethyl-piperazin-1-yl}-ethanone], under setting [1], the pIC50 was 7.09.
Same read-out and setting: then `O=S1(=O)C(c2ccccc2)CC2(CC2)CN1Cc1ccc(N2CCC(n3cnnc3)CC2)cc1F` (single isomer, unassigned) [Example 257, 5-[2-Fluoro-4-(4-[1,2,4]triazol-4-yl-piperidin-1-yl)-benzyl]-7-phenyl-6-thia-5-aza-spiro[2.5]octane 6,6-dioxde], with 7.27; and `CC(=O)N1CCN(c2ccc(CN3[C@@H](C)CCC(c4ccccc4)S3(=O)=O)c(F)c2)C[C@H]1C(=O)N(C)C` (stereo partly drawn) [Example 379, (S)-1-Acetyl-4-[3-fluoro-4-((3S)-methyl-1,1-dioxo-6-phenyl-[1,2]thiazinan-2-ylmethyl)-phenyl]-piperazine-2-carboxylic acid dimethylamide], with 6.05; and `CC(=O)N1CCN(c2ccc(CN3[C@@H](C(C)C)CCC(c4ccccc4)S3(=O)=O)c(F)c2)CC1` (single isomer, unassigned) [Example 247], with 7.54.
Still for that read-out and setting: the same measure for `C[C@H]1CCC(c2ccccc2)S(=O)(=O)N1Cc1ccc(N[C@H]2CC[C@H](C#N)CC2)cc1F` (single isomer, unassigned) [Example 112]: 7.52.
Same read-out and setting: then `CC(=O)N1CCN(c2ccc(CN3[C@@H](C)CCC(c4ccc(Cl)cc4)S3(=O)=O)c(F)c2)CC1` (single isomer, unassigned) [Example 175], with 7.52; and `CC(=O)N1CCN(c2ccc(CN3C4CC(C4)CC(c4ccccc4)S3(=O)=O)c(F)c2)CC1` (single isomer, unassigned) [Example 301, 1-{4-[4-(3,3-Dioxo-4-pheny-3-thia-2-aza-bicyclo[4.1.1]oct-2-ylmethyl)-3-fluoro-phenyl]-piperazin-1-yl}-ethanone], with 6.51.
Turning to `CC(=O)N1CCN(c2ccc(CN3CCCC(c4ccc(F)cc4)S3(=O)=O)c(F)c2)CC1` (single isomer, unassigned) [Example 11, 1-(4-{3-Fluoro-4-[6-(4-fluoro-phenyl)-1,1-dioxo-[1,2]thiazinan-2-ylmethyl]-phenyl}-piperazin-1-yl)-ethanone], the negative logarithm of the IC50 (pIC50) under setting [1] is 6.90.
Consider `CC(=O)N1CCN(c2ccc(CN3[C@@H](C)CCC(c4ccccc4)S3(=O)=O)cc2C)CC1` (single isomer, unassigned) [Example 129], for which the pIC50 under setting [1] was 6.36.
As to `C[C@H]1CCC(c2ccccc2)S(=O)(=O)N1Cc1ccc(C(=O)N2CCC(CCNS(C)(=O)=O)CC2)cc1` (stereo partly drawn) [Example 294, N-(2-{1-[4-((3S)-Methyl-1,1-dioxo-6-phenyl-[1,2]thiazinan-2-ylmethyl)-benzoyl]-piperidin-4-yl}-ethyl)-methanesulfonamide], the negative logarithm of the IC50 (pIC50) under setting [1] is 5.75.
Same read-out and setting: the same measure for `C[C@H]1CCC(c2ccccc2)S(=O)(=O)N1Cc1ccc(N2CCC(c3cnn[nH]3)CC2)cc1F` (single isomer, unassigned) [Example 255]: 7.92; for `C[C@H]1CCC(c2ccccc2)S(=O)(=O)N1Cc1ccc(N2CCC(n3ccnc3)CC2)cc1F` (stereo partly drawn) [Example 217, (3S)-2-[2-Fluoro-4-(4-imidazol-1-yl-piperidin-1-yl)-benzyl]-3-methyl-6-phenyl-[1,2]thiazinane 1,1-dioxide]: 7.96; for `CC(=O)N1CCN(c2ccc(CN3CCCCC(c4ccccc4)S3(=O)=O)c(F)c2)[C@@H](C)C1` (single isomer, unassigned) [Example 341, 1-{4-[4-(1,1-Dioxo-7-phenyl-[1,2]thiazepan-2-ylmethyl)-3-fluoro-phenyl]-3-methyl-piperazin-1-yl}-ethanone]: 7.59.
Same read-out and setting: then `CC(=O)N1CCN(c2ccc(CN3C[C@@H](C)CC(c4ccccc4)S3(=O)=O)c(F)c2)CC1` (single isomer, unassigned) [Example 198], with 7.72; and `C[C@H]1CCC(c2ccccc2)S(=O)(=O)N1Cc1ccc(N[C@H]2C[C@H](n3cnnc3)C2)cc1F` (stereo partly drawn) [Example 234, [3-Fluoro-4-((3S)-methyl-1,1-dioxo-6-phenyl-[1,2]thiazinan-2-ylmethyl)-phenyl]-(3-[1,2,4]triazol-4-yl-cyclobutyl)-amine], with 6.88.
Take `O=C(CO)N1CCN(c2ccc(CN3CCCCC(c4ccccc4)S3(=O)=O)c(F)c2)CC1` (single isomer, unassigned) [Example 308, 1-{4-[4-(1,1-Dioxo-7-phenyl-[1,2]thiazepan-2-ylmethyl)-3-fluoro-phenyl]-piperazin-1-yl}-2-hydroxy-ethanone]: the pIC50 under setting [1] is 7.54.
Take `C[C@H](O)C(=O)N1CCN(c2ccc(CN3[C@@H](C)CCC(c4ccccc4)S3(=O)=O)c(F)c2)CC1` (single isomer, unassigned) [Example 78]: under setting [1], the pIC50 was 7.54.
On the same count and under the same terms, the same measure for `C[C@H]1CCC(c2ccccc2)S(=O)(=O)N1Cc1ccc(N2CCn3c(n[nH]c3=O)C2)cc1F` (single isomer, unassigned) [Example 157]: 5.77.
The same measure, in the same setting: then `COc1ccc(C2CC[C@H](C)N(Cc3ccc(N4CCN(C(C)=O)CC4)cc3F)S2(=O)=O)cc1` (single isomer, unassigned) [Example 177], with 6.83; and `CC(=O)N1CCN(c2ccc(CN3C[C@@H](C)OCC(c4ccccc4)S3(=O)=O)c(F)c2)CC1` (single isomer, unassigned) [Example 30], with 6.97.
On the same count and under the same terms, then `CC(=O)N1CCN(c2ccc(CN3[C@@H](C)CC[C@@H](c4ccccc4Cl)S3(=O)=O)c(F)c2)CC1` (single isomer, unassigned) [Example 204], with 7.28; and `C[C@H]1CCC(c2ccccc2)S(=O)(=O)N1Cc1ccc(N2CCC(n3ncnn3)CC2)cc1F` (single isomer, unassigned) [Example 244], with 7.62; and `C[C@H]1CCC(c2ccccc2)S(=O)(=O)N1Cc1ccc(N2CCC(n3cnnc3)CC2)cc1` (single isomer, unassigned) [Example 214], with 6.62.
For the compound `C[C@H](O)C(=O)N1CCN(c2ccc(CN3CCCCC(c4ccccc4)S3(=O)=O)c(F)c2)CC1` (single isomer, unassigned) [Example 305, 1-{4-[4-(1,1-Dioxo-7-phenyl-[1,2]thiazepan-2-ylmethyl)-3-fluoro-phenyl]-piperazin-1-yl}-2-hydroxy-propan-1-one], the negative-log IC50 (pIC50) under setting [1] is 6.78.
On the same count and under the same terms, then `C[C@H]1CCC(c2ccccc2)S(=O)(=O)N1Cc1ccc(OC2CN(S(C)(=O)=O)C2)cc1F` (single isomer, unassigned) [Example 37], with 6.71; and `CC(=O)N1CCN(c2ccc(CN3[C@@H](C)CC(c4ccccc4)S3(=O)=O)c(F)c2)CC1` (single isomer, unassigned) [Example 64], with 6.15.
With `C[C@H]1CCC(c2ccccc2)S(=O)(=O)N1Cc1ccc(N2CCN(c3cnccn3)CC2)cc1F` (stereo partly drawn) [Example 441, 4-[3-Fluoro-4-((3S)-methyl-1,1-dioxo-6-phenyl-[1,2]thiazinan-2-ylmethyl)-phenyl]-3,4,5,6-tetrahydro-2H-[1,2′]bipyrazinyl], the pIC50 was 6.77.

Source of the values: patent US9115101B2 (Genentech, Inc., priority 2012, dated 2015).
